Tests used:
[1] = test system: KAI3 (IL-2 2.5 ng/mL); assay: percent inhibition of viability; higher = more inhibition; conditions: 72 h
[2] = test system: normal primary NK cells, pool 1 (3 donors), resting (IL-2 0 ng/mL); assay: as above; conditions: 72 h
[3] = test system: SNK-6 (IL-2 2.5 ng/mL); assay: as above; conditions: 72 h
[4] = test system: IMC-1 (IL-2 20 ng/mL); assay: as above; conditions: 72 h
[5] = test system: NK-YS (IL-2 2.5 ng/mL); assay: as above; conditions: 72 h
[6] = test system: NKL (IL-2 2.5 ng/mL); assay: as above; conditions: 72 h
[7] = test system: NK-92 (IL-2 2.5 ng/mL); assay: as above; conditions: 72 h
[8] = test system: normal primary NK cells, pool 3 (3 donors) (IL-2 2.5 ng/mL); assay: as above; conditions: 72 h
[9] = test system: YT (IL-2 2.5 ng/mL); assay: as above; conditions: 72 h
[10] = test system: normal primary NK cells, pool 1 (3 donors) (IL-2 2.5 ng/mL); assay: as above; conditions: 72 h
[11] = test system: DERL-7 (IL-2 2.5 ng/mL); assay: as above; conditions: 72 h
[12] = test system: KHYG-1 (IL-2 2.5 ng/mL); assay: as above; conditions: 72 h
[13] = test system: normal primary NK cells, pool 2 (3 donors) (IL-2 2.5 ng/mL); assay: as above; conditions: 72 h
[14] = test system: normal NK cells expanded with K562-aAPC; assay: as above; conditions: 72 h, IL-2 2.5 ng/mL
Description: (§1)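 Drug sensitivity and resistance testing on K562-aAPC-expanded normal NK cells: 5 concentrations (10-fold steps over a 10,000-fold range), 72 h at 37 °C, viability by CellTiter-Glo normalised to DMSO and benzethonium chloride controls; DSS from the fitted curve.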

[15] = test system: KAI3 (IL-2 2.5 ng/mL); assay: drug sensitivity score (DSS) (DSS units); higher = more sensitive; extreme values may be limits of the assay; conditions: 72 h
[16] = test system: normal primary NK cells, pool 1 (3 donors), resting (IL-2 0 ng/mL); assay: as above; conditions: 72 h
[17] = test system: SNK-6 (IL-2 2.5 ng/mL); assay: as above; conditions: 72 h
[18] = test system: IMC-1 (IL-2 20 ng/mL); assay: as above; conditions: 72 h
[19] = test system: NK-YS (IL-2 2.5 ng/mL); assay: as above; conditions: 72 h
[20] = test system: NKL (IL-2 2.5 ng/mL); assay: as above; conditions: 72 h
[21] = test system: NK-92 (IL-2 2.5 ng/mL); assay: as above; conditions: 72 h
[22] = test system: normal primary NK cells, pool 3 (3 donors) (IL-2 2.5 ng/mL); assay: as above; conditions: 72 h
[23] = test system: YT (IL-2 2.5 ng/mL); assay: as above; conditions: 72 h
[24] = test system: normal primary NK cells, pool 1 (3 donors) (IL-2 2.5 ng/mL); assay: as above; conditions: 72 h
[25] = test system: DERL-7 (IL-2 2.5 ng/mL); assay: as above; conditions: 72 h
[26] = test system: KHYG-1 (IL-2 2.5 ng/mL); assay: as above; conditions: 72 h
[27] = test system: normal primary NK cells, pool 2 (3 donors) (IL-2 2.5 ng/mL); assay: as above; conditions: 72 h
[28] = test system: normal NK cells expanded with K562-aAPC; assay: as above; conditions: 72 h; IL-2 2.5 ng/mL
Description: as §1

COc1cccc2c1c(O)c(C(=O)N(C)c1ccc(C(F)(F)F)cc1)c(=O)n2C [Tasquinimod] (max concentration tested 10000 nM)
percent inhibition of viability [%]
Conditions	1 nM	10 nM	100 nM	1000 nM	10000 nM
[1]	-4.26	7.35	5.88	0.64	16.9
[2]	8.18	-8.58	-1.08	-15.9	-8.64
[3]	-5.13	6.31	6.1	14.1	15.8
[4]	-0.7	-0.26	6.03	4.89	24.9
[5]	0.96	4.34	12.7	5.52	18.5
[6]	-7.64	-0.44	4.18	-3.6	2.35
[7]	-9.77	4.66	9.08	0.57	14.6
[8]	-20.6	-6.75	-1.92	-3.86	-2.57
[9]	-0.31	1.63	5.58	-0.55	12.3
[10]	3.81	-6.54	6.5	-11.9	5.24
[11]	-3.57	-2.07	-7.69	-10.8	-11.1
[12]	-2.03	0.19	16.6	3.8	15.4
[13]	-8.15	-6.65	-1.09	-7.24	-2.69
[14]	-7.07	0.32	1.21	7.82	14.8

Conditions	drug sensitivity score
[15]	0.42
[16]	0
[17]	1.33
[18]	1.63
[19]	0.88
[20]	0
[21]	0.25
[22]	0
[23]	0.05
[24]	0
[25]	0
[26]	0.64
[27]	0
[28]	0.52

COc1cc(O)c2c(c1)/C=C/C[C@H](O)[C@H](O)C(=O)/C=C\C[C@H](C)OC2=O [(5Z)-7-Oxozeaenol] (max concentration tested 10000 nM)
percent inhibition of viability [%]
Conditions	1 nM	10 nM	100 nM	1000 nM	10000 nM
[1]	0.25	0.75	5.8	59	105
[2]	-25.1	10.7	9.8	54.5	92
[3]	-2.4	-7.72	-14.8	23.5	95
[4]	-4.21	-3.28	-4.71	-7.11	48.9
[5]	-3.96	-2.39	8.28	41.9	105
[6]	-8.24	17.5	38.5	80	110
[7]	-20.1	-30	-17.5	26.2	104
[8]	-13.2	9.87	4.11	13.6	98.2
[9]	-2.81	-5.3	6.58	46.2	105
[10]	-6.25	6.9	22.8	45.6	98.5
[11]	-5.8	2.14	10.7	66.3	101
[12]	0.21	-0.62	3.17	83.9	109
[13]	-15.9	1.06	2.6	22.8	96.8
[14]	-4.98	-3.35	-1.51	18.7	94.8

Conditions	drug sensitivity score
[15]	12.6
[16]	12
[17]	8.87
[18]	2.11
[19]	11
[20]	20.5
[21]	9.5
[22]	7.72
[23]	11.4
[24]	12.1
[25]	14.1
[26]	15.6
[27]	8.91
[28]	8.28

C[C@@H]1C=C2C(=O)O[C@@H]3CC[C@H](C1)[C@]23O [Galiellalactone] (max concentration tested 25000 nM)
percent inhibition of viability [%]
Conditions	2.5 nM	25 nM	250 nM	2500 nM	25000 nM
[1]	0.86	-9.38	4.52	34.1	99.1
[2]	-12.7	5.72	9.42	27.4	89.3
[3]	-13.8	-22	-28.1	20.7	86
[4]	-4.12	-5.59	-4.92	-11.8	42.7
[5]	0.84	-3.46	3.95	18.4	64.7
[6]	-8.21	-5.52	-6.69	-5.94	49.3
[7]	-18	-14.4	-12.5	13.8	106
[8]	-11.4	1.14	-3.83	2.67	87.7
[9]	-7.44	-15.7	-6.7	-3.78	81
[10]	-8.48	6.95	7.01	15.2	93.7
[11]	-3.32	-2.23	6.78	39.3	101
[12]	-7.95	-9.83	-6.41	10.7	80.1
[13]	-9.13	7.06	4.86	10.7	93.2
[14]	-7.73	-4.65	-5.56	8.69	91.9

Conditions	drug sensitivity score
[15]	9.99
[16]	8.44
[17]	7.97
[18]	1.6
[19]	6.25
[20]	2.18
[21]	7.95
[22]	5.23
[23]	4.18
[24]	7.72
[25]	10.3
[26]	6.22
[27]	6.94
[28]	6.5
